Results taken from patent US20140243302A1, “BRIDGED BICYCLIC COMPOUNDS FOR THE TREATMENT OF BACTERIAL INFECTIONS” (priority 2011, published 2014).
≈ marks a conversion by molar mass, not a printed value. Counter-ions that a name gives are not always drawn.

System: Staphylococcus aureus Smith
Assay: MIC assay, modified agar dilution (CLSI), S. aureus Smith
Assay type: cell-based
Conditions: Staphylococcus aureus, agar dilution, 35° C., 16-20 hr; lowest concentration that completely inhibited growth; read-out: S_aureus_Smith_WT_MIC
Method in brief: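 Strains were spotted at about 1×10^4 CFU onto compound-containing Mueller Hinton agar (two-fold series, 128-0.001 μg/mL), horse blood 5% added for pneumococcus and enterococcus. MIC read after 16-20 hr at 35 °C, following a modified CLSI agar dilution method.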

Q: With `NCCCCOc1ccc2ncc(F)c(CCC34CCC(NCc5ccc6c(n5)NC(=O)CO6)(CC3)CO4)c2n1` [Example 39, 6-((1-(2-(6-(4-Aminobutoxy)-3-fluoro-1,5-naphthyridin-4-yl)ethyl)-2-oxabicyclo[2.2.2]octan-4-ylamino)methyl)-2H-pyrido[3,2-b][1,4]oxazin-3(4H)-one] as the molecule, how does the MIC read?
A: 0.5 µg/mL (≈ 0.908 µM)

Q: Which MIC does the source give for `COc1ccc2ncc(F)c(CC(O)C34CCC(NCc5cc6c(cn5)OCC(=O)N6)(CC3)CO4)c2n1` (centres unmarked) [Example 149, 7-((1-(2-(3-Fluoro-6-methoxy-1,5-naphthyridin-4-yl)-1-hydroxyethyl)-2-oxabicyclo[2.2.2]octan-4-ylamino)methyl)-1H-pyrido[3,4-b][1,4]oxazin-2(3H)-one] here?
A: 0.063 µg/mL (≈ 0.124 µM)

Q: Which MIC does the source give for `COc1ccc2ncc(C#N)c(CCC34CCC(NCc5cc6c(cn5)OCCO6)(CC3)CO4)c2n1` [Example 45, 4-(2-(4-((2,3-Dihydro-[1,4]dioxino[2,3-c]pyridin-7-yl)methylamino)-2-oxabicyclo[2.2.2]octan-1-yl)ethyl)-6-methoxy-1,5-naphthyridine-3-carbonitrile Hydrochloride] here?
A: 0.031 µg/mL

Q: How did the MIC turn out when `COc1ccc2ncc(Cl)c(CCC34CCC(NCc5ccc6c(c5)NC(=O)CO6)(CC3)CC4)c2n1` [Example 56, 6-((4-(2-(3-Chloro-6-methoxy-1,5-naphthyridin-4-yl)ethyl)bicyclo[2.2.2]octan-1-ylamino)methyl)-2H-benzo[b][1,4]oxazin-3(4H)-one] was run?
A: 0.031 µg/mL (≈ 0.0611 µM)

Q: Which MIC does the source give for `COc1ccc2nccc(CCC34CCC(NCc5ccc6c(n5)NC(=O)CO6)(CC3)CO4)c2n1.Cl` [Example 17, 6-((1-(2-(6-Methoxy-1,5-naphthyridin-4-yl)ethyl)-2-oxabicyclo[2.2.2]octan-4-ylamino)methyl)-2H-pyrido[3,2-b][1,4]oxazin-3(4H)-one Hydrochloride] here?
A: 0.031 µg/mL

Q: How did the MIC turn out when `COc1ccc2ncc(F)c(CCC34CCC(NCc5ccc6c(n5)OCCN6)(CC3)CO4)c2n1` [Example 207, 6-(((1-(2-(3-Fluoro-6-methoxy-1,5-naphthyridin-4-yl)ethyl)-2-oxabicyclo[2.2.2]octan-4-yl)ammonio)methyl)-2,3-dihydro-1H-pyrido[2,3-b][1,4]oxazin-1-ium chloride] was run?
A: 0.5 µg/mL

Q: With `COc1ccc2ncc(F)c(CCC34CCC(NCc5ccc6c(n5)NC(=O)CO6)(CC3)CO4)c2c1.Cl` [Example 125, 6-((1-(2-(3-Fluoro-6-methoxyquinolin-4-yl)ethyl)-2-oxabicyclo[2.2.2]octan-4-ylamino)methyl)-2H-pyrido[3,2-b][1,4]oxazin-3(4H)-one Hydrochloride] as the molecule, how does the MIC read?
A: 0.016 µg/mL

Q: How did the MIC turn out when `COc1ccc2ncc(Cl)c(/C=C/C34CCC(NCc5ccc6c(n5)NC(=O)CO6)(CC3)CC4)c2n1.Cl` [Example 10, (E)-6-((4-(2-(3-Chloro-6-methoxy-1,5-naphthyridin-4-yl)vinyl)bicyclo[2.2.2]octan-1-ylamino)methyl)-2H-pyrido[3,2-b][1,4]oxazin-3(4H)-one Hydrochloride] was run?
A: 0.016 µg/mL

Q: How did the MIC turn out when `COc1ccc2ncc(F)c(CCC34CCC(NCC5CCCCC5)(CC3)CO4)c2n1` [Example 70, N-(Cyclohexylmethyl)-1-(2-(3-fluoro-6-methoxy-1,5-naphthyridin-4-yl)ethyl)-2-oxabicyclo[2.2.2]octan-4-amine] was run?
A: 2 µg/mL (≈ 4.68 µM)

Q: How did the MIC turn out when `COc1ccc2ncc(F)c(CCC34CCC(NCc5nc6cccnc6n(C)c5=O)(CC3)CO4)c2n1.Cl` [Example 108, 2-((1-(2-(3-Fluoro-6-methoxy-1,5-naphthyridin-4-yl)ethyl)-2-oxabicyclo[2.2.2]octan-4-ylamino)methyl)-4-methylpyrido[3,2-b]pyrazin-3(4H)-one Hydrochloride] was run?
A: > 8 µg/mL

Q: `COc1ccc2ncc(F)c(CCC34CCC(NCc5cc6cccnc6s5)(CC3)CO4)c2n1` [Example 77, 1-(2-(3-Fluoro-6-methoxy-1,5-naphthyridin-4-yl)ethyl)-N-(thieno[2,3-b]pyridin-2-ylmethyl)-2-oxabicyclo[2.2.2]octan-4-amine] was tested. Which MIC did it give?
A: 0.125 µg/mL (≈ 0.261 µM)

Q: With `N[C@@H]1CO[C@H]1COc1ccc2ncc(F)c(CCC34CCC(NCc5ccc6c(n5)NC(=O)CO6)(CC3)CO4)c2n1` [Example 185, 6-((1-(2-(6-(((2R,3R)-3-Aminooxetan-2-yl)methoxy)-3-fluoro-1,5-naphthyridin-4-yl)ethyl)-2-oxabicyclo[2.2.2]octan-4-ylamino)methyl)-2H-pyrido[3,2-b][1,4]oxazin-3(4H)-one] as the molecule, how does the MIC read?
A: 0.125 µg/mL (≈ 0.221 µM)

Q: For `COc1ccc2ncc(F)c(CCC34CCC(NCc5ccc(N6CCCCC6)nc5)(CC3)CO4)c2n1` [Example 84, 1-(2-(3-Fluoro-6-methoxy-1,5-naphthyridin-4-yl)ethyl)-N-((6-(piperidin-1-yl)pyridin-3-yl)methyl)-2-oxabicyclo[2.2.2]octan-4-amine], which MIC is on record?
A: 0.25 µg/mL (≈ 0.494 µM)

Q: For `COc1ccc2ncc(F)c(CC(OC)C34CCC(NCc5ccc6c(n5)NC(=O)CO6)(CC3)CO4)c2n1.Cl` (centres unmarked) [Example 22, 6-((1-(2-(3-Fluoro-6-methoxy-1,5-naphthyridin-4-yl)-1-methoxyethyl)-2-oxabicyclo[2.2.2]octan-4-ylamino)methyl)-2H-pyrido[3,2-b][1,4]oxazin-3(4H)-one Hydrochloride], which MIC is on record?
A: 0.25 µg/mL

Q: With `COc1ccc2ncc(F)c(CCC34CCC(NCc5ccc6c(n5)N(C)C(=O)CO6)(CC3)CO4)c2n1` [Example 101, 6-((1-(2-(3-Fluoro-6-methoxy-1,5-naphthyridin-4-yl)ethyl)-2-oxabicyclo[2.2.2]octan-4-ylamino)methyl)-4-methyl-2H-pyrido[3,2-b][1,4]oxazin-3(4H)-one] as the molecule, how does the MIC read?
A: 2 µg/mL (≈ 3.94 µM)

Q: `COc1ccc2ncc(O)c(CCC34CCC(NCc5ccc6c(n5)NC(=O)CO6)(CC3)CO4)c2n1` [Example 124, 6-(((1-(2-(3-Hydroxy-6-methoxy-1,5-naphthyridin-4-yl)ethyl)-2-oxabicyclo[2.2.2]octan-4-yl)amino)methyl)-2H-pyrido[3,2-b][1,4]oxazin-3(4H)-one] was tested. Which MIC did it give?
A: 0.031 µg/mL (≈ 0.0631 µM)

Q: How did the MIC turn out when `Cc1nc2ccccc2n(CCC23CCC(NCc4ccc5c(n4)NC(=O)CO5)(CC2)CO3)c1=O` [Example 114, 6-((1-(2-(3-Methyl-2-oxoquinoxalin-1(2H)-yl)ethyl)-2-oxabicyclo[2.2.2]octan-4-ylamino)methyl)-2H-pyrido[3,2-b][1,4]oxazin-3(4H)-one] was run?
A: 4 µg/mL (≈ 8.41 µM)

Q: How did the MIC turn out when `COc1ccc2ncc(Cl)c(CC(O)C34CCC(NCc5ccc6c(n5)NC(=O)CO6)(CC3)CC4)c2n1.Cl` (single isomer, unassigned) [Example 14a, 6-((4-(2-(3-Chloro-6-methoxy-1,5-naphthyridin-4-yl)-1-hydroxyethyl)bicyclo[2.2.2]octan-1-ylamino)methyl)-2H-pyrido[3,2-b][1,4]oxazin-3(4H)-one Hydrochloride] was run?
A: 0.031 µg/mL

Q: Which MIC does the source give for `C=CCOc1ccc2ncc(F)c(CCC34CCC(NCc5ccc6c(n5)NC(=O)CO6)(CC3)CO4)c2n1` [Example 186, 6-{[(1-{2-[3-Fluoro-6-(prop-2-en-1-yloxy)-1,5-naphthyridin-4-yl]ethyl}-2-oxabicyclo[2.2.2]oct-4-yl)amino]methyl}-2H-pyrido[3,2-b][1,4]oxazin-3(4H)-one] here?
A: 0.063 µg/mL (≈ 0.121 µM)

Q: For `O=C1COc2ccc(CNC34CCC(CCn5c(=O)c6cccn6c6c(F)cccc65)(CC3)OC4)nc2N1` [Example 112, 6-((1-(2-(9-Fluoro-4-oxopyrrolo[1,2-a]quinoxalin-5(4H)-yl)ethyl)-2-oxabicyclo[2.2.2]octan-4-ylamino)methyl)-2H-pyrido[3,2-b][1,4]oxazin-3(4H)-one], which MIC is on record?
A: 1 µg/mL (≈ 1.93 µM)

Q: Which MIC does the source give for `COc1ccc2ncc(F)c(CC(N)C34CCC(NCc5ccc6c(n5)NC(=O)CO6)(CC3)CO4)c2n1` (single isomer, unassigned) [Example 21a, 6-((1-(1-Amino-2-(3-fluoro-6-methoxy-1,5-naphthyridin-4-yl)ethyl)-2-oxabicyclo[2.2.2]octan-4-ylamino)methyl)-2H-pyrido[3,2-b][1,4]oxazin-3(4H)-one Dihydrochloride] here?
A: 0.25 µg/mL

Q: How did the MIC turn out when `COCCOc1ccc2ncc(F)c(CCC34CCC(NCc5ccc6c(n5)NC(=O)CO6)(CC3)CO4)c2n1` [Example 33, 6-((1-(2-(3-Fluoro-6-(2-methoxyethoxy)-1,5-naphthyridin-4-yl)ethyl)-2-oxabicyclo[2.2.2]octan-4-ylamino)methyl)-2H-pyrido[3,2-b][1,4]oxazin-3(4H)-one] was run?
A: 0.063 µg/mL (≈ 0.117 µM)

Same assay, conditions: agar dilution, 35° C., 16-20 hr; lowest concentration that completely inhibited growth

Q: `O=C1COc2ccc(CNC34CCC(C(O)Cn5c(=O)ccc6ncc(F)cc65)(CC3)OC4)nc2N1` (single isomer, unassigned) [Example 55a, 6-((1-(2-(7-Fluoro-2-oxo-1,5-naphthyridin-1(2H)-yl)-1-hydroxyethyl)-2-oxabicyclo[2.2.2]octan-4-ylamino)methyl)-2H-pyrido[3,2-b][1,4]oxazin-3(4H)-one] was tested. Which S_aureus_Smith_WT_MIC did it give?
A: 1.00 µg/mL
